Test results: publication PMC6835155, “Lessons from LIMK1 enzymology and their impact on inhibitor design” (Biochemical Journal, 2019)
Counter-ions that a name gives are not always drawn. Like-named read-outs stand apart in the source and are kept apart here.

How the values were obtained:
LIMK1KD = biological target: T1, LIMK1KD (Homo sapiens, UniProt P53667); experiment: Differential (dynamic) scanning fluorimetry (DSF) assay, LIMK1KD; assay type: binding; conditions: for ΔTm at 10 µM: read-out: TM Shift LIMK1 (K)
T1 construct: His6 (N, cleaved yes); made in house; host or cells: baculovirus; Sf9 for virus, TriEx insect cells for expression

LIMK2KD = biological target: T2, LIMK2KD (Homo sapiens, UniProt P53671); experiment: Differential (dynamic) scanning fluorimetry (DSF) assay, LIMK2KD; assay type: binding; conditions: for ΔTm at 10 µM: read-out: TM Shift LIMK2 (K)
T2 construct: The cDNA coding for LIMK2 residues 330 to 632 was PCR amplified; His6 (N, cleaved yes); made in house; host or cells: baculovirus; Sf9 for virus, TriEx insect cells for expression

[1] = 2 µM LIMK1KD, compound 10 µM, single shot
[2] = LIMK2KD, compound 10 µM, single shot
[3] = LIMK2KD, compound 10 µM, single shot, 10 µM

T2 sequence (P53671 330-632): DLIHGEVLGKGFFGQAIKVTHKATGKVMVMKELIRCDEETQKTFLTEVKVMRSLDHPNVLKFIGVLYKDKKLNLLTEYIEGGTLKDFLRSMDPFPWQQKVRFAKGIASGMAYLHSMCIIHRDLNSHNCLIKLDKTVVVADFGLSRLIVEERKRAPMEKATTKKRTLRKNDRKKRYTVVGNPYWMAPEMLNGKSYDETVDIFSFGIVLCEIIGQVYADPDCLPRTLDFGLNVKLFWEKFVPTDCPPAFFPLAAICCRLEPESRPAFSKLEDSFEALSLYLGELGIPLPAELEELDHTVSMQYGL
T1 sequence (P53667 330-637): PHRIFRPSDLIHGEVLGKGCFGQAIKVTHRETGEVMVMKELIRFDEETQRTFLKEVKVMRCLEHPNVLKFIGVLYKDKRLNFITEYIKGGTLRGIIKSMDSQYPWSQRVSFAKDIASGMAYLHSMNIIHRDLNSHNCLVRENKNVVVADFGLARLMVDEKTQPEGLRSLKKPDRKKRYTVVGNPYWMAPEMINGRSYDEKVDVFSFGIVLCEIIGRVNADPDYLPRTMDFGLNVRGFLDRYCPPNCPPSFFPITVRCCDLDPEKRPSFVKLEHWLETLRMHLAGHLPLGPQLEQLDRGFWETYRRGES

TM Shift LIMK1 (K) (LIMK1KD; [1])	TM Shift LIMK2 (K) (LIMK2KD; [2])	ΔTm at 10 µM (LIMK1KD; [1]) [°C]	ΔTm at 10 µM (LIMK2KD; [2]) [°C]	Molecule	also measured
				Cn1cc(-c2cnn3c(N)c(Br)c([C@@H]4CCCNC4)nc23)cn1 [MK-8776 (SCH 900776)]	ΔTm at 10 µM (LIMK1KD): 1.8 °C; ΔTm at 10 µM (LIMK2KD): 2.2 °C
1.6	1.2			C=CC(=O)Nc1cccc(Nc2nc(Nc3ccc(Oc4ccnc(C(=O)NC)c4)cc3)ncc2F)c1 [CNX-774]	
0.2	4.1			WYE-354	
		0.9	1.9	COCCOc1ccc2c(c1)ncn2-c1ccc2cccc(N3CCC(N)CC3)c2n1 [CP-673451]	
		0.1	0.1	COc1cc2c(Nc3ccc(Br)cc3F)ncnc2cc1OCC1CCN(C)CC1 [Vandetanib (ZD6474), Vandetanib]	
		0.1	1	CN(C)CCOc1ccc(-c2nc(-c3ccncc3)c(-c3ccc4c(c3)CC/C4=N\O)[nH]2)cc1 [SB590885]	
		1	1.6	Cn1cc(C2=C(c3cn(C4CCN(Cc5ccccn5)CC4)c4ccccc34)C(=O)NC2=O)c2ccccc21 [Enzastaurin (LY317615), Enzastaurin]	
		-0.3	4	O=c1c(-c2ccc(O)cc2)coc2cc(O)cc(O)c12 [Genistein]	
		5	1	CO[C@@H](C(=O)N1Cc2n[nH]c(NC(=O)c3ccc(N4CCN(C)CC4)cc3)c2C1)c1ccccc1 [Danusertib (PHA-739358), Danusertib]	
		-0.2	-0.1	COc1cc2ncnc(Oc3cccc(NC(=O)Nc4cc(C(C)(C)C(F)(F)F)on4)c3)c2cc1OC [CEP-32496]	
		0.8	-0.9	Nc1nc(N)c(N=O)c(OCC2CCCCC2)n1 [NU6027]	
1.0	1.5			CN1CCN(c2cccc(Nc3nc4c(-c5ccc(S(C)(=O)=O)cc5)cccn4n3)c2)CC1 [CEP-33779]	
		0.1	2	Cc1c(Cn2c(C)nc3c(C(=O)O)cc(N4CCOCC4)cc32)cccc1C(F)(F)F [GSK2636771]	
		1.3	0.3	COC(=O)c1ccc2c(c1)NC(=O)/C2=C(\Nc1ccc(N(C)C(=O)CN2CCN(C)CC2)cc1)c1ccccc1 [Nintedanib]	
		-0.5	-0.2	Cc1nc(NC(=O)N2CCC[C@H]2C(N)=O)sc1-c1ccnc(C(C)(C)C(F)(F)F)c1 [BYL719]	
		5		Cc1cc(Nc2cc(CN3CCOCC3)c3nc(C)c(Cc4ccc(Cl)cc4F)n3n2)n[nH]1 [LY2784544]	TM Shift LIMK2 (K) (LIMK2KD; [3]): 1.1 K
		0.9	-0.7	N#CC[C@@H](C1CCCC1)n1cc(-c2ncnc3[nH]ccc23)cn1 [S-Ruxolitinib (INCB018424), S-Ruxolitinib]	
		2.5	3.8	CCCS(=O)(=O)Nc1ccc(F)c(C(=O)c2c[nH]c3ncc(Cl)cc23)c1F [PLX-4720]	
2.1				CC(C)(C)Cn1c(N)nc2ccc(-c3[nH]c(C(C)(C)C)nc3-c3ccc(F)cc3)nc21 [LY2228820]	TM Shift LIMK2 (K) (LIMK2KD; [3]): 4.4 K
		1.5	0.9	O=C(O)[C@]1(Cc2cccc(Nc3nccs3)n2)CC[C@@H](Oc2cccc(Cl)c2F)CC1 [MK-5108 (VX-689)]	
		3.2	3.1	CC(C)(C)Cn1c(N)nc2ccc(-c3[nH]c(C(C)(C)C)nc3-c3ccc(F)cc3)nc21 [Ralimetinib]	
		0.9	0.3	CCN1CCN(Cc2ccc(Nc3ncc(F)c(-c4cc(F)c5nc(C)n(C(C)C)c5c4)n3)nc2)CC1 [LY2835219]	
		0.9	1.3	Cc1cc(O)c2c(c1)C(=O)c1cccc(O)c1C2=O [Chrysophanic Acid]	
		6	0.1	Cc1cc(Nc2nc(N[C@@H](C)c3ccc(F)cc3)c(C#N)cc2F)[nH]n1 [AZ 960]	
		-1.6	1.1	CCc1cc2c(cc1N1CCC(N3CCOCC3)CC1)C(C)(C)c1[nH]c3cc(C#N)ccc3c1C2=O [Alectinib (CH5424802), Alectinib]	

TM Shift LIMK1 (K) (LIMK1KD; [1])	TM Shift LIMK2 (K) (LIMK2KD; [2])	ΔTm at 10 µM (LIMK1KD; [1]) [°C]	ΔTm at 10 µM (LIMK2KD; [2]) [°C]	Molecule	also measured
0.7	0.9			N#C/C(=C\c1ccc(O)c(O)c1)C(=O)NCc1ccccc1 [AG-490 (Tyrphostin B42), Tyrphostin B42]	
0.4	1.8			COc1cc2ncnc(Nc3ccc(Cl)cc3F)c2cc1OC [ZM 306416]	
		-0.9	1.7	C[C@H]1[C@H](C)CC[C@]2(C(=O)O)CC[C@]3(C)C(=CC[C@@H]4[C@@]5(C)C[C@@H](O)[C@H](O)[C@@](C)(CO)[C@@H]5CC[C@]43C)[C@H]12 [Asiatic Acid]	
		0.9	0.5	C=CC(=O)Nc1cc2c(Nc3ccc(F)c(Cl)c3)ncnc2cc1OCCCN1CCOCC1 [Canertinib (CI-1033), Canertinib]	
5.4				Cc1cc(Nc2cc(CN3CCOCC3)c3nc(C)c(Cc4ccc(Cl)cc4F)n3n2)n[nH]1 [Gandotinib]	TM Shift LIMK2 (K) (LIMK2KD; LIMK2KD, compound 10 µM, single shot, listed as gandotinib, 10 µM): −0.5 K
0.8			0.9	C[C@]1(O)C[C@@H](c2nc(-c3ccc4ccc(-c5ccccc5)nc4c3)c3c(N)nccn32)C1 [Linsitinib]	TM Shift LIMK1 (K) (LIMK1KD; 2 µM LIMK1KD, compound 10 µM, single shot, listed as OSI-906 (Linsitinib)): 0.2 K; TM Shift LIMK2 (K) (LIMK2KD; LIMK2KD, compound 10 µM, single shot, listed as OSI-906 (Linsitinib), 10 µM): 0.7 K
0.0	1.2			Oc1ccc2ccccc2c1SSc1c(O)ccc2ccccc12 [IPA-3]	
0.7	-0.4			Cc1nc(Nc2n[nH]c3c2CN(C(=O)N[C@H](CN(C)C)c2ccccc2)C3(C)C)c2sccc2n1 [PF-03758309]	
0.8	0.7			CCc1cc(Nc2nccc(-c3c(-c4ccc(OC)c(C(=O)Nc5c(F)cccc5F)c4)nc4ccccn34)n2)c(OC)cc1N1CCC(N2CCN(S(C)(=O)=O)CC2)CC1 [GSK1904529A]	
		1.4	-0.2	O=C(O)c1ccc(-c2c[nH]c3ncc(-c4ccccc4)cc23)cc1C1CCCC1 [GSK650394]	
0.2	0.1			Nc1ncnc2c1c(-c1cccc(OCc3ccccc3)c1)cn2C1CC(CN2CCCC2)C1 (stereo not shown) [NVP-ADW742]	
		0.9	1.7	C=CCc1ccc(O)c(-c2ccc(O)c(CC=C)c2)c1 [Honokiol]	
2.9	0.2			CN(c1ccccc1CNc1nc(Nc2ccc3c(c2)CC(=O)N3)ncc1C(F)(F)F)S(C)(=O)=O [PF 431396]	
1.0	0.7			CS(=O)(=O)c1cccc(CNc2nc(Nc3ccc4c(c3)CCC(=O)N4)ncc2C(F)(F)F)c1 [PF-573228]	
		-0.2	3.1	CCC(=O)N1CCN(c2ccc(-n3c(=O)ccc4cnc5ccc(-c6cnc7ccccc7c6)cc5c43)cc2C(F)(F)F)CC1 [Torin 1]	
		0.4	-0.8	COCC(=O)NC/C=C/c1ccc2ncnc(Nc3ccc(Oc4ccc(C)nc4)c(C)c3)c2c1 [CP-724714]	
-0.5	2.9			Cn1cc(-c2ccc3ncc(Cc4ccc5ncccc5c4)n3n2)cn1 [NVP-BVU972]	
2.0	0.2			Cc1cc(Nc2ncnc3ccc(-c4ccc(CNCCS(C)(=O)=O)o4)cc23)ccc1Oc1ccn2ncnc2c1 [HER2-Inhibitor-1]	
		-0.5	0.3	Cn1c(=O)c(F)c(Nc2ccc(I)cc2F)c2c(=O)n(C[C@@H](O)CO)cnc21 [TAK-733]	
5.2	4.1			Nc1cccc(-c2cc3c(Oc4cccc(O)c4)ncnc3[nH]2)c1 [TWS119]	
		3.6	1.1	COCCNCc1ccc(-c2cc3nccc(Oc4ccc(NC(=S)NC(=O)Cc5ccc(F)cc5)cc4F)c3s2)nc1 [MGCD-265]	
		-0.5	-0.3	Clc1ccc(Nc2nnc(Cc3ccncc3)c3ccccc23)cc1 [Vatalanib (PTK787) 2HCl, Vatalanib]	
		0.4	0.1	C=CC(=O)Nc1ccc2ncnc(Nc3ccc(OCc4cccc(F)c4)c(Cl)c3)c2c1 [AST-1306]	
		-0.1	0	CO[C@H]1C[C@@H]2CC[C@@H](C)[C@@](O)(O2)C(=O)C(=O)N2CCCC[C@H]2C(=O)O[C@H]([C@H](C)C[C@@H]2CC[C@@H](O)[C@H](OC)C2)CC(=O)[C@H](C)/C=C(\C)[C@@H](O)[C@@H](OC)C(=O)[C@H](C)C[C@H](C)/C=C/C=C/C=C/1C [Rapamycin (Sirolimus), Rapamycin]	

Molecule	TM Shift LIMK1 (K) (LIMK1KD; [1])	TM Shift LIMK2 (K) (LIMK2KD; [2])	ΔTm at 10 µM (LIMK1KD; [1]) [°C]	ΔTm at 10 µM (LIMK2KD; [2]) [°C]	also measured
N#CC(C#N)=Cc1ccc(O)c(O)c1 [AG-18]	0.1	0.6			
OCCn1cc(-c2cnc3nnn(Cc4ccc5ncccc5c4)c3n2)cn1 [PF-04217903]	0.3	-0.1			
C#Cc1cccc(Nc2ncnc3cc(OCCOC)c(OCCOC)cc23)c1 [Erlotinib HCl (OSI-744), Erlotinib HCl]			0.1	0.5	
O=C(Nc1cc(C(F)(F)F)cc(C(F)(F)F)c1)c1cc(Cl)ccc1O [IMD 0354]			-0.6	1.4	
CC(C)(C)c1cc(C=C(C#N)C#N)cc(Br)c1O [AG-1024]	2.5	4.3			
O=c1[nH]c2ccc(Cl)cc2c(N[C@@H]2CN3CCC2CC3)c1-c1nc2ccccc2[nH]1 [CHIR-124]	2.2	-1.7			
